# Results taken from patent US4059687A, “Ester substituted dibiguanides and non-toxic antimicrobial compositions thereof” (Colgate Palmolive Company, priority 1976, dated 1977).
# Counter-ions that a name gives are not always drawn.
# Legend:
# [1] = on standing; cited from earlier work
# [2] = tested on: Staphylococcus aureus; test: test tube serial dilution test (minimal inhibitory concentration), S. aureus (Gram positive); type: cell-based; conditions: broth serial dilution; for MIC: Staphylococcus aureus, read-out: Minimum Inhibitory Concentration, S. aureus
# Text: (§1) It has been observed that the compounds generally described by the foregoing formula are particularly effective against gram positive organisms such as Staphylococcus aureus, Streptococcus sanguis and Streptococcus mutans; gram negative organisms such as Pseudomonas aeruginosa and Escherichia coli; and against fungi, such as Candida alibicans (yeast) and Trichophyton mentogrophytes and Aspergillus niger (mold). Compounds wherein A or B is a carboxyl radical in lieu of instant alkyl ester radical are substantially devoid of antibacterial activity.
# (§2) The anti-microbial nature of the instant novel nontoxic compounds was shown by a standard test tube serial dilution test in which an appropriate number of test tubes of broth containing decreasing concentrations of the test agent was innoculated with the test organism (0.1% in ethyl alcohol). After a suitable period of incubation, the tubes were examined for the presence or absence of growth. The activity of the test agent was the lowest concentration which inhibited the growth of the organism and is expressed as the minimal inhibitory concentration in μ gm/ml. As shown in the following table of antimicrobial data, the dibiguanides of this invention are active against a variety of micro-organisms with maximum activity with a butyl and pentyl ester substituent on the phenyl radical.
# [3] = tested on: C. albicans; test: test tube serial dilution test (minimal inhibitory concentration), C. albicans (yeast); type: cell-based; conditions: broth serial dilution; for MIC: Candida albicans, read-out: Minimum Inhibitory Concentration, C. albicans
# Text: as §1, §2
# [4] = tested on: Streptococcus sanguis; test: test tube serial dilution test (minimal inhibitory concentration), Strep. sanguis (Gram positive); type: cell-based; conditions: broth serial dilution; for MIC: Streptococcus, read-out: Minimum Inhibitory Concentration, Strep. sanguis
# Text: as §1, §2
# [5] = tested on: Streptococcus mutans; test: test tube serial dilution test (minimal inhibitory concentration), Strep. mutans (Gram positive); type: cell-based; conditions: broth serial dilution; for MIC: Streptococcus mutans, read-out: Minimum Inhibitory Concentration, Strep. mutans
# Text: as §1, §2
# [6] = tested on: dental plaque; conditions: background statement; cited from earlier work
# [7] = tested on: Aspergillus niger; test: test tube serial dilution test (minimal inhibitory concentration), A. niger (mold); type: cell-based; conditions: broth serial dilution; for MIC: Aspergillus niger, read-out: Minimum Inhibitory Concentration, A. niger
# Text: as §1, §2
# [8] = tested on: Escherichia coli; test: test tube serial dilution test (minimal inhibitory concentration), E. coli (Gram negative); type: cell-based; conditions: broth serial dilution; for MIC: Escherichia coli, read-out: Minimum Inhibitory Concentration, E. coli
# Text: as §1, §2
# [9] = literature; cited from earlier work
# [10] = tested on: Pseudomonas aeruginosa; test: test tube serial dilution test (minimal inhibitory concentration), Ps. aeruginosa (Gram negative); type: cell-based; conditions: broth serial dilution; for MIC: Pseudomonas aeruginosa, read-out: Minimum Inhibitory Concentration, Ps. aeruginosa
# Text: as §1, §2
# [11] = tested on: Trichophyton mentogrophytes; test: test tube serial dilution test (minimal inhibitory concentration), T. ment (mold); type: cell-based; conditions: broth serial dilution; for MIC: Trichophyton, read-out: Minimum Inhibitory Concentration, T. ment
# Text: as §1, §2
SMILES,hydrolysis of solutions to p-chloroaniline [1],MIC [2] [µg/mL],MIC [3] [µg/mL],"Minimum Inhibitory Concentration, Strep. sanguis [4]",MIC [5] [µg/mL],antibacterial effect against dental plaque [6],MIC [7] [µg/mL],"Minimum Inhibitory Concentration, E. coli [8]",bacteriostatic activity in words [9],MIC [10] [µg/mL],MIC [4] [µg/mL],MIC [11] [µg/mL],MIC [8] [µg/mL],"Minimum Inhibitory Concentration, Ps. aeruginosa [10] [μgm/ml]","Minimum Inhibitory Concentration, S. aureus [2]","Minimum Inhibitory Concentration, C. albicans [3] [μgm/ml]","Minimum Inhibitory Concentration, T. ment [11] [μgm/ml]","Minimum Inhibitory Concentration, Strep. mutans [5]","Minimum Inhibitory Concentration, A. niger [7] [μgm/ml]"
"N=C(NCCCCCCNC(=N)NC(=N)Nc1ccc(Cl)cc1)NC(=N)Nc1ccc(Cl)cc1 [Chlorhexidine, reference compound]",hydrolyze on standing to form additional amounts of p-chloroaniline,0.19,1.56,3.12 μgm/ml,< 0.05,effective antibacterial agent against dental plaque,25,0.19 μgm/ml,selected as the best,,,,,,,,,,
"CC(C)OC(=O)c1ccc(NC(=N)NC(=N)NCCCCCCNC(=N)NC(=N)Nc2ccc(C(=O)OC(C)C)cc2)cc1 [A = (CH3)2 CHOCO, B = H]",,0.19,1.56,,0.1,,50,,,25,6.25,6.25,1.56,,,,,,
"CCCOC(=O)c1ccc(NC(=N)NC(=N)NCCCCCCNC(=N)NC(=N)Nc2ccc(C(=O)OCCC)cc2)cc1 [A = C3 H7 OCO, B = H]",,0.19,3.12,,< 0.05,,100,,,25,3.12,3.12,1.56,,,,,,
"CC(C)OC(=O)c1cccc(NC(=N)NC(=N)NCCCCCCNC(=N)NC(=N)Nc2cccc(C(=O)OC(C)C)c2)c1 [A = H, B = (CH3)2 CHOCO, dihydrochloride]",,0.19,3.12,,0.1,,50,,,50,12.5,12.5,3.12,,,,,,
"COC(=O)c1ccc(NC(=N)NC(=N)NCCCCCCNC(=N)NC(=N)Nc2ccc(C(=O)OC)cc2)cc1 [A = CH3 OCO, B = H]",,,,50 μgm/ml,,,,25 μgm/ml,,,,,,50,6.25 μgm/ml,25,12.5,1.56 μgm/ml,100
"CCCCOC(=O)c1ccc(NC(=N)NC(=N)NCCCCCCNC(=N)NC(=N)Nc2ccc(C(=O)OCCCC)cc2)cc1 [drawing 6: A = C4 H9 OCO, B = H]",,0.05,0.78,,< 0.05,,100,,,25,0.78,,3.12,,,,0.19,,
"N=C(NCCCCCCNC(=N)NC(=N)Nc1ccc(Cl)cc1)NC(=N)Nc1ccc(Cl)cc1 [Chlorhexidine hydrochloride, reference compound]",,,,6.25 μgm/ml,,,,.78 μgm/ml,,,,,,12.5,.19 μgm/ml,3.12,1.56,< .05 μgm/ml,25
"CCCCOC(=O)c1cccc(NC(=N)NC(=N)NCCCCCCNC(=N)NC(=N)Nc2cccc(C(=O)OCCCC)c2)c1 [A = H, B = C4 H9 OCO]",,< 0.05,0.39,,< 0.05,,50,,,12.5,1.56,6.25,0.78,,,,,,
"CCCCCCCCOC(=O)c1ccc(NC(=N)NC(=N)NCCCCCCNC(=N)NC(=N)Nc2ccc(C(=O)OCCCCCCCC)cc2)cc1 [A = C8 H17 OCO, B = H, N,N""-bis(4-Octyloxycarbonylphenyl)-3,12-diimino-2,4,11,13-tetraazatetradecanediimidamide dihydrochloride]",,1.56,12.5,,1.56,,100,,,50,25,25,12.5,,,,,,
"COC(=O)c1ccc(NC(=N)NC(=N)NCCCCCCNC(=N)NC(=N)Nc2ccc(C(=O)OC)cc2)cc1 [drawing 6: A = CH3 OCO, B = H]",,,25,,,,100,,,25,50,25,50,,3.12 μgm/ml,,,25 μgm/ml,
"CCCCCCOC(=O)c1ccc(NC(=N)NC(=N)NCCCCCCNC(=N)NC(=N)Nc2ccc(C(=O)OCCCCCC)cc2)cc1 [A = C6 H13 OCO, B = H]",,0.39,0.39,,0.39,,100,,,50,0.39,12.5,6.25,,,,,,
"CCOC(=O)c1ccc(NC(=N)NC(=N)NCCCCCCNC(=N)NC(=N)Nc2ccc(C(=O)OCC)cc2)cc1 [A = C2 H5 OCO, B = H, N,N""-bis(4-ethoxycarbonylphenyl)-3,12-diimino-2,4,11,13-tetraazatetradecanediimidamide dihydrochloride]",,0.78,12.5,,0.39,,100,,,25,25,12.5,1.56,,,,,,
"CCCCOC(=O)c1ccc(NC(=N)NC(=N)NCCCCCCNC(=N)NC(=N)Nc2ccc(C(=O)OCCCC)cc2)cc1 [A = C4 H9 OCO, B = H]",,,,.78 μgm/ml,,,,1.56 μgm/ml,,,,,,12.5,0.1 μgm/ml,0.78,12.5,< .05 μgm/ml,50
"COC(=O)c1cccc(NC(=N)NC(=N)NCCCCCCNC(=N)NC(=N)Nc2cccc(C(=O)OC)c2)c1 [A = H, B = CH3 OCO]",,3.12,25,,1.56,,100,,,50,100,12.5,12.5,,,,,,
"N=C(NCCCCCCNC(=N)NC(=N)Nc1ccc(C(=O)O)cc1)NC(=N)Nc1ccc(C(=O)O)cc1 [A = COOH, B = H, reference compound]",,10,100,,25,,100,,,50,100,100,100,,,,,,
"CCCCCOC(=O)c1ccc(NC(=N)NC(=N)NCCCCCCNC(=N)NC(=N)Nc2ccc(C(=O)OCCCCC)cc2)cc1 [A = C5 H11 OCO, B = H]",,0.39,0.39,,< 0.05,,50,,,50,0.19,25,25,,,,,,
